Assays:
[1] = target: T1, tyramine receptor (TyrR) (Drosophila melanogaster, UniProt P22270); assay: Tyramine receptor binding with 3H-tyramine in transfected Schneider cells
T1 construct: The open reading frame of the Drosophila tyramine receptor (TyrR) may be amplified via PCR; expressed in transfected cells; host or cells: Drosophila Schneider cells
T1 sequence (P22270 27-601): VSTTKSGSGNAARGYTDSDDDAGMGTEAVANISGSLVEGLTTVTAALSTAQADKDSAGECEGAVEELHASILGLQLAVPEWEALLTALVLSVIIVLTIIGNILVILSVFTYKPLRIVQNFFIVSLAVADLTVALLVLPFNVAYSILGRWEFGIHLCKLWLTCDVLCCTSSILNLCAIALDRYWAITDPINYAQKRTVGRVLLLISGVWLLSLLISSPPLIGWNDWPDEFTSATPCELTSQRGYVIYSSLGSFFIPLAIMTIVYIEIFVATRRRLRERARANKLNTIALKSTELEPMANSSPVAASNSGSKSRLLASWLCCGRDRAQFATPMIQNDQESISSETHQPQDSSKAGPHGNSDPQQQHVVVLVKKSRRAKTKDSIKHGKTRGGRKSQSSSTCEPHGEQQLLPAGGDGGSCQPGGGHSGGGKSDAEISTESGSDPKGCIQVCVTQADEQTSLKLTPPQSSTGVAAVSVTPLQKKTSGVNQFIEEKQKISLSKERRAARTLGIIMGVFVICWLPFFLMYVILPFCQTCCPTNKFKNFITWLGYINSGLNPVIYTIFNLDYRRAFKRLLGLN
Text: Tyramine receptor may be amplified, for example, from a Drosophila melanogaster head cDNA phage library. Phage DNA may be purified from this library by known methods using a liquid culture lysate. The open reading frame of the Drosophila tyramine receptor (TyrR) may be amplified via PCR, and the PCR product may be digested, and the TyrR open reading frame may be inserted into an expression vector using known methods, and transfected Schneider cell clones may be prepared.
Tyramine receptor binding/uptake may be performed to determine which of the transfected clones have the highest levels of functionally active tyramine receptor protein, and the selected clone may be propagated and stored in liquid nitrogen. Aliquots of the selected clone are grown for whole cell binding and for plasma membrane preparation for kinetic and screening studies.
For binding studies, cells transfected with the tyramine receptor (about 1×10^6 cells/ml) are cultured in each well of a multi-well plate, and binding is assessed using ^3H-tyramine and unlabeled tyramine. […] Saturation binding experiments may be performed to determine Bmax and Kd values for TyrR.

[2] = test system: tyramine receptor mutant (TyrRneo30) strains; type: in vivo, Drosophila; conditions: topically applied at LD50 determined against wild type; mortality 24 h after treatment; FIG. 4
Description: LD50 values of tested chemicals (determined against wild type Drosophila) were topically applied against wild type and tyramine receptor mutant (TyrRneo30) strains. Mortality was determined 24 h after treatment. Data are the average of three replicates, 5 flies per replicate. This experiment was repeated five times.

[3] = test system: wild-type strain of E. coli; assay: MIC over successive weeks (resistance development) in E. coli; type: cell-based; conditions: MIC determined weekly and applied, repeated for 4 weeks
Description: Test compositions and conventional pesticides are compared to determine their respective ability to maintain pesticidal effectiveness over successive generations of pest species. For example, a wild-type strain of E. coli is treated with both penicillin (group 1) and a test composition from Table 1 or Table 2 (group 2). MIC (minimum inhibitory concentration; the lowest concentration of an antibacterial that will inhibit the visible growth of a microorganism after overnight incubation) values are determined at 1-week post-treatment for both groups, and the appropriate MIC amount is applied to both test populations. This is repeated for 4 weeks. […] In contrast, the MIC value for group 2 remains static, indicating a lack of resistance development among the group 2 population.

NCCc1ccc(O)cc1 [Blend 3H-tyramine, ^3H-tyramine]
3H-tyramine concentration at which maximum specific binding occurs ([1]; cells transfected with the tyramine receptor): about 5 nM

Cc1ccc(C(C)C)cc1O [carvacrol]
effect (mortality) on Drosophila expressing a mutant form of the tyramine receptor [2]: did not affect

NCCc1ccc(O)cc1 [tyramine]
response of untransfected cells to tyramine ([1]; untransfected cells, concentration as high as about 100 μM): do not respond

penicillin
course of the MIC value over time (resistance development) [3]: increases over time

From patent US20110171135A1, “PEST-CONTROL COMPOSITIONS AND METHODS HAVING HIGH TARGET AND LOW NON-TARGET ACTIVITY” (priority 2008, published 2011)
